The text below walks through data of ChEMBL document CHEMBL4706477, “Synthesis and Biological Evaluation of Calothrixins B and their Deoxygenated Analogues” (J Med Chem, 2018).

For one data set, the system named is HEK293. Kind of data set: Antiproliferative activity against human HEK293 cells assessed as reduction in cell viability incubated for 48 hrs by sulphorhodamine B assay. The class given is functional.
Data set [1] deals with NCI-H460. Kind of data set: Induction of cell cycle arrest in human NCI-H460 cells assessed as accumulation of cells at G1 phase incubated for 48 hrs by propidium iodide staining based flow cytometry analysis. The data set is classed as functional. The conditions noted are these: dose 0.1-2 µM.
Data set [2] relates to HCT-116. The data set can be described thus: Induction of cell cycle arrest in human HCT-116 cells assessed as accumulation of cells at G2/M phase at 5 uM incubated for 3 to 20 hrs in presence of 0.3 uM mitotic inhibitor nocodazole by propidium iodide staining based flow cytometry analysis. The class given is functional. The settings on record: time 3-20 hrs.
Data set [3] concerns HCT-116. The data set can be described thus: Induction of cell cycle arrest in human HCT-116 cells assessed as accumulation of cells at G2/M phase at 5 uM incubated for 20 hrs by propidium iodide staining based flow cytometry analysis. The data set is classed as functional.
Data set [4] has as its system HeLa. Kind of data set: cells. The settings on record: Homo sapiens, 48 h.
Description: Antiproliferative activity against human HeLa cells assessed as reduction in cell viability incubated for 48 hrs by sulphorhodamine B assay
In data set [5] the test system is NCI-H460. Kind of data set: Induction of DNA damage in human NCI-H460 cells incubated for 48 hrs by alkaline Comet assay. The data set is classed as functional, cell-based.
Data set [6] deals with HCT-116. The data set can be described thus: Induction of cell cycle arrest in human HCT-116 cells assessed as accumulation of cells at G2/M phase at 5 uM incubated for 48 hrs by propidium iodide staining based flow cytometry analysis. The data set is classed as functional.
The next data set deals with Jurkat. The data set can be described thus: cells. The conditions noted are these: Homo sapiens, 48 h.
Data set [7] has as its target T1, DNA topoisomerase 1 (Homo sapiens) (UniProt P11387).
T1 sequence (whole entry): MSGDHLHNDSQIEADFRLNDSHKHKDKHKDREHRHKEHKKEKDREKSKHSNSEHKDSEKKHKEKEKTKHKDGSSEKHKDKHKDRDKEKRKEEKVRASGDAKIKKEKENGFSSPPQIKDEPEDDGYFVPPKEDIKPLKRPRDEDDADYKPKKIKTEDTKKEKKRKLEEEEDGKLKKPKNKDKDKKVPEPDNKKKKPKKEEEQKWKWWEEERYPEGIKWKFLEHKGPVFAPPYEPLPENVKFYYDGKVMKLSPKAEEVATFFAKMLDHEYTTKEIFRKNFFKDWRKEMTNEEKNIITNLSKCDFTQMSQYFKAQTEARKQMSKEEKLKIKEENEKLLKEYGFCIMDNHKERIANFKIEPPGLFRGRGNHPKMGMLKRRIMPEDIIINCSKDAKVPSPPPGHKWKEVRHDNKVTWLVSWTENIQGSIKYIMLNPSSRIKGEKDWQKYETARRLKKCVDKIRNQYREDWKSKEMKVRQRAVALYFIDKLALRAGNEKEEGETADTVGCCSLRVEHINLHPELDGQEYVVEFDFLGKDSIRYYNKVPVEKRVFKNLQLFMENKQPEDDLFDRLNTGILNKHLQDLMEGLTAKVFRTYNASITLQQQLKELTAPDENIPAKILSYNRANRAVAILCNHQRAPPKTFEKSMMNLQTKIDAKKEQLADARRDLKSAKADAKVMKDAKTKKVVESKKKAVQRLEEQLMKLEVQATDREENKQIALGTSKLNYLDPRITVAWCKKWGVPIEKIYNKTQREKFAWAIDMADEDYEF
The data set can be described thus: Inhibition of human topoisomerase 1 assessed as induction of negative supercoiled DNA using relaxed pBlue-Script KS(+) plasmid DNA as substrate measured after 15 mins by agarose gel electrophoresis analysis. The conditions noted are these: dose 60-100 µM.

For data set [8], the system named is NCI-H460. Kind of data set: cells. The settings on record: Homo sapiens, NCI-H460, 48 h.
Description: Antiproliferative activity against human NCI-H460 cells assessed as reduction in cell viability incubated for 48 hrs by sulphorhodamine B assay
Data set [9] has as its system HCT-116. The data set can be described thus: Anticlonogenic activity against human HCT-116 cells assessed as inhibition of colony formation at 0.1 to 5 uM incubated for 48 hrs followed by compound washout with PBS and measured after 14 days by crystal violet staining based analysis. The data set is classed as functional, cell-based. The conditions noted are these: dose 0.1-5 µM.

In data set [10] the test system is Calf thymus DNA. The data set can be described thus: Binding affinity to calf thymus DNA assessed as red shift absorbance measured at 258 nm at 3*10^-5 mol/L by double beam UV-Vis spectroscopic analysis. The class given is nucleic-acid assay. The settings on record: Bos taurus.
Data set [11] has as its system NCI-H460. Kind of data set: Induction of cell death in human NCI-H460 cells at 0.1 uM incubated for 48 hrs by propidium iodide staining based flow cytometry analysis. The class given is functional.
Data set [12] relates to NCI-H460. The data set can be described thus: Induction of apoptosis in human NCI-H460 cells assessed as cleaved PARP levels at 1 uM incubated for 48 hrs by Western blot analysis. The data set is classed as functional, cell-based.
Another data set concerns U-251. Kind of data set: cells. The settings on record: Homo sapiens, U-251, 48 h.
Data set [13] concerns HCT-116. Kind of data set: Induction of DNA damage in human HCT-116 cells assessed as tail length at 5 uM incubated for 48 hrs by alkaline Comet assay relative to control. The data set is classed as functional, cell-based.
For data set [14], the system named is NCI-H460. Kind of data set: Induction of apoptosis in human NCI-H460 cells assessed as morphological changes at 0.5 uM incubated for 48 hrs by acridine orange/propidium iodide double staining based fluorescence microscopy analysis. The data set is classed as functional, cell-based.
Data set [15] in a line: physchem. The settings on record: octanol/buffer, pH 7.4.
Description: Octanol/buffer distribution coefficient, log D of the compound at pH 7.4
Another data set has as its system MCF7. The data set can be described thus: cells. The settings on record: Homo sapiens, MCF7, 48 h.
A further data set concerns MDA-MB-231. Kind of data set: cells. The conditions noted are these: Homo sapiens, MDA-MB-231, 48 h.
Data set [16] is described as follows: physchem. The conditions noted are these: octanol/water.
Description: Octanol/water partition coefficient, log P of the compound
Data set [17] has as its system Calf thymus DNA. Kind of data set: Binding affinity to calf thymus DNA assessed as hyperchromic effect measured at 258 nm at 3*10^-5 mol/L by double beam UV-Vis spectroscopic analysis. The data set is classed as nucleic-acid assay. The conditions noted are these: Bos taurus.
For the next data set, the system named is SiHa. The data set can be described thus: cells. The settings on record: Homo sapiens, 48 h.
Another data set relates to A549. Kind of data set: Antiproliferative activity against human A549 cells assessed as reduction in cell viability incubated for 48 hrs by sulphorhodamine B assay. The data set is classed as functional.
Data set [18] deals with Calf thymus DNA. Kind of data set: Binding affinity to calf thymus DNA assessed as hyperchromic effect measured at 302 nm at 3*10^-5 mol/L by double beam UV-Vis spectroscopic analysis. The class given is nucleic-acid assay. The conditions noted are these: Bos taurus.
For data set [19], the target named is T2, DNA topoisomerase 2-alpha (Homo sapiens, UniProt P11388). The data set can be described thus: Inhibition of recombinant human topoisomerase 2 assessed as decrease in relaxation of supercoiled pBlue-Script KS(+) plasmid DNA incubated for 30 mins by ethidium bromide staining based gel electrophoresis method.
The subject of data set [20] is HCT-116. The data set can be described thus: cells. The conditions noted are these: Homo sapiens, HCT-116, 48 h.
Description: Antiproliferative activity against human HCT-116 cells assessed as reduction in cell viability incubated for 48 hrs by sulphorhodamine B assay
Data set [21] relates to Calf thymus DNA. Kind of data set: Binding affinity to calf thymus DNA assessed as hypochromic effect at 3*10^-5 mol/L by double beam UV-Vis spectroscopic analysis. The data set is classed as nucleic-acid assay. The settings on record: Bos taurus.
In data set [22] the test system is Calf thymus DNA. Kind of data set: Binding affinity to calf thymus DNA assessed as bathochromic shift absorbance in absorption maximum at 3*10^-5 mol/L by double beam UV-Vis spectroscopic analysis. The data set is classed as nucleic-acid assay. The conditions noted are these: Bos taurus.
Data set [23] concerns HCT-116. The data set can be described thus: cells. The settings on record: Homo sapiens, HCT-116, 48 h. The source holds these as a separate data set.
Description: Antiproliferative activity against human HCT-116 p53-/- cells assessed as reduction in cell viability incubated for 48 hrs by sulphorhodamine B assay
Data set [24] has as its system HeLa. The data set can be described thus: Induction of apoptosis in human HeLa cells assessed as increase in cleaved PARP levels at 10 uM by Western blot analysis. The data set is classed as functional, cell-based. The conditions noted are these: time 6-48 hrs, TDE = time-dependent effect.
The subject of data set [25] is HCT-116. The data set can be described thus: Induction of cell cycle arrest in human HCT-116 cells assessed as accumulation of cells at G1 phase at 5 uM incubated for 3 to 20 hrs in presence of 0.3 uM mitotic inhibitor nocodazole by propidium iodide staining based flow cytometry analysis. The data set is classed as functional. The conditions noted are these: time 3-20 hrs.

The subject of data set [26] is HCT-116. Kind of data set: Induction of cell cycle arrest in human HCT-116 cells assessed as accumulation of cells at G1 phase at 5 uM incubated for 48 hrs by propidium iodide staining based flow cytometry analysis. The data set is classed as functional.
The target of data set [27] is T2, DNA topoisomerase 2-alpha. The data set can be described thus: Inhibition of human topoisomerase 2 assessed as inhibition of etoposide-induced DNA cleavage complex formation by measuring linear DNA formation at 30 to 50 uM incubated for 30 mins using pRYG DNA as substrate by agarose gel electrophoresis analysis. The settings on record: dose 30-50 µM.
Data set [28] addresses T2, DNA topoisomerase 2-alpha. The data set can be described thus: Inhibition of recombinant human topoisomerase 2 assessed as decrease in relaxation of supercoiled pBlue-Script KS(+) plasmid DNA at 40 uM incubated for 30 mins by ethidium bromide staining based gel electrophoresis method relative to control.
In data set [29] the target is T2, DNA topoisomerase 2-alpha. The data set can be described thus: Inhibition of recombinant human topoisomerase 2 assessed as decrease in relaxation of supercoiled pBlue-Script KS(+) plasmid DNA at 200 uM incubated for 30 mins by ethidium bromide staining based gel electrophoresis method.

The source made the active and inactive calls. No cut-off for these calls is given here. Bounds are passed on as bounds.

T2 sequence (P11388 whole entry): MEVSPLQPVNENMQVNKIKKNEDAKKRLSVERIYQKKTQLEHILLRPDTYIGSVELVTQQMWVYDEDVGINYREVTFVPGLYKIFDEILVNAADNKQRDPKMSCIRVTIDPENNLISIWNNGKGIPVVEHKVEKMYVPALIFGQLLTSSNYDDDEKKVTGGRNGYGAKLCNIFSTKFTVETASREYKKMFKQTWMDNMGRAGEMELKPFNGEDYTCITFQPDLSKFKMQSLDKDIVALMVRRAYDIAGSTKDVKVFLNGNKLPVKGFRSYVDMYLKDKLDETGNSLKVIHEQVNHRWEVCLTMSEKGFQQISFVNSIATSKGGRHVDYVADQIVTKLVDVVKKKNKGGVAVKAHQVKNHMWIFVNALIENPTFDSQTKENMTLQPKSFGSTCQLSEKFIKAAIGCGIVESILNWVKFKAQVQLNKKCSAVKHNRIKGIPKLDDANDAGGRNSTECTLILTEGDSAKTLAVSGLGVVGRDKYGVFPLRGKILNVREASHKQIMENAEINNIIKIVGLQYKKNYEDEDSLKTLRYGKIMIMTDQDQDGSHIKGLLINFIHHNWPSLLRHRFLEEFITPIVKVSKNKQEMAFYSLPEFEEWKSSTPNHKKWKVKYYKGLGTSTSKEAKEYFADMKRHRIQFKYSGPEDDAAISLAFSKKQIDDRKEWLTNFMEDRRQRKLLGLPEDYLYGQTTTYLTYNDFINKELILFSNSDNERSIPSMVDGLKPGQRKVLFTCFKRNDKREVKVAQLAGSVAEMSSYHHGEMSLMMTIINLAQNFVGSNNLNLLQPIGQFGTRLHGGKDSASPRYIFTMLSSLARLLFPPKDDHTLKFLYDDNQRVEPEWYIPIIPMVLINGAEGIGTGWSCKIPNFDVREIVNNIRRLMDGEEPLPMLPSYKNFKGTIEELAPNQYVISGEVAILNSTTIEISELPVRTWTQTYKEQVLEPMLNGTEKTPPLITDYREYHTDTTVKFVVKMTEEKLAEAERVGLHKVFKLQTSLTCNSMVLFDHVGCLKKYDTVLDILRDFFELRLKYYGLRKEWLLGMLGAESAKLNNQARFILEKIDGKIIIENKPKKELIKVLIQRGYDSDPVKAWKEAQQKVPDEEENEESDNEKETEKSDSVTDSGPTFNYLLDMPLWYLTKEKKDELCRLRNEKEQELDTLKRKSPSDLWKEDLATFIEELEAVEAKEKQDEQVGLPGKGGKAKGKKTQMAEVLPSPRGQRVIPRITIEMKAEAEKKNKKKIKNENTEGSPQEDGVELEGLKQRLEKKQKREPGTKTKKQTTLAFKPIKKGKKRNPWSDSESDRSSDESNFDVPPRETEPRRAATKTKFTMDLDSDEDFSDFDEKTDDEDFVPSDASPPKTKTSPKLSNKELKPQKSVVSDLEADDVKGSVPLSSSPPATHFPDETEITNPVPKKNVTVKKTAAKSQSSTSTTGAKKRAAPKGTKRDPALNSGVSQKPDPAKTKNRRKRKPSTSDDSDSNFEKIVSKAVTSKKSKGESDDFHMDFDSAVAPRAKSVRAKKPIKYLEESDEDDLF
Description for Jurkat: Antiproliferative activity against human Jurkat cells assessed as reduction in cell viability incubated for 48 hrs by sulphorhodamine B assay
Description for MCF7: Antiproliferative activity against human MCF7 cells assessed as reduction in cell viability incubated for 48 hrs by sulphorhodamine B assay
Description for MDA-MB-231: Antiproliferative activity against human MDA-MB-231 cells assessed as reduction in cell viability incubated for 48 hrs by sulphorhodamine B assay
Description for SiHa: Antiproliferative activity against human SiHa cells assessed as reduction in cell viability incubated for 48 hrs by sulphorhodamine B assay
Description for U-251: Antiproliferative activity against human U-251 cells assessed as reduction in cell viability incubated for 48 hrs by sulphorhodamine B assay

On to `Fc1ccc2c(c1)ncc1cc3c(cc12)[nH]c1ccccc13`, for which the GI50 is 5.2 nM with HEK293; 20 nM with HeLa [4]; > 4000 nM in the data set with Jurkat; 1 nM in the data set with NCI-H460 [8]; > 4000 nM in the data set with U-251; 20 nM with MCF7. The GI50 in the data set on MDA-MB-231 is 950 nM; in the data set with SiHa, > 4000 nM; with A549, > 4000 nM; in the data set on HCT-116 [20], 6000 nM. Also, the Activity result with NCI-H460 [1] is “Dose-dependent effect”; in the data set with NCI-H460 [5], “Dose-dependent effect”; in data set [7], “Dose-dependent effect”; in the data set with Calf thymus DNA [10], 14 nm; with Calf thymus DNA [17], 46%; in the data set on Calf thymus DNA [18], 41%. The result with HCT-116 [2], in the data set with HCT-116 [3], with HCT-116 [6], in the data set with NCI-H460 [11], with NCI-H460 [12] and in the data set on HCT-116 [13] was Active. In the data set on NCI-H460 [14], the result was Active. In addition, in the data set with HCT-116 [9], the inhibition result was “Active”. In “physchem [15]”, this compound showed a logD of 1.61. The compound further came in with a logP in the data set “physchem [16]” of 1.91. The inhibition entry in data set [19] was “inactive”.
Consider `CN(C)CCCNc1nc2ccccc2c2cc3[nH]c4ccccc4c3cc12`, for which the Activity with Calf thymus DNA [21] was determined as 40%; with Calf thymus DNA [22] it was 15 nm. The 50% growth inhibitory concentration (GI50) is 1100 nM with HeLa [4]; 1500 nM in the data set on NCI-H460 [8]; 1350 nM in the data set on U-251; 2750 nM with MCF7; 1000 nM in the data set with MDA-MB-231; 1150 nM with SiHa. The GI50 in the data set with HCT-116 [20] is 1750 nM.
Take `O=C1c2[nH]c3ccccc3c2C(=O)c2cnc3ccccc3c21` [CALOTHRIXIN B]: the outcome with HCT-116 [2], in the data set with HCT-116 [13] and with HCT-116 [26] was Active. For the same compound, the GI50 with HeLa [4] is 470 nM; with Jurkat, > 4000 nM; with HCT-116 [23] it was 2550 nM; with NCI-H460 [8] it was > 4000 nM; in the data set on U-251, 2250 nM; with MCF7 it was 260 nM. Further, the GI50 in the data set with MDA-MB-231 was 160 nM; with SiHa, 3500 nM; in the data set with HCT-116 [20], 650 nM. Further, the Activity entry in the data set with HeLa [24] was “Tde”. Moreover, the logD in the data set “physchem [15]” was -2.11. In addition, the outcome in the data set with HCT-116 [25] was inactive. The logP in “physchem [16]” was -1.81.
Consider `Cc1c2cnc3ccccc3c2cc2[nH]c3ccccc3c12`, for which the GI50 with HEK293 is > 4000 nM; in the data set with HeLa [4], 360 nM; in the data set on Jurkat it was > 4000 nM; in the data set on NCI-H460 [8] it was 10500 nM; with U-251, > 4000 nM; in the data set on MCF7, > 4000 nM. The GI50 in the data set with MDA-MB-231 is > 4000 nM; in the data set on SiHa, > 4000 nM; in the data set with A549, > 4000 nM; in the data set with HCT-116 [20], 15000 nM. Further, the inhibition entry in [27] was “Active”. The Activity entry in [7] was “Dose-dependent effect”. Moreover, the values for the inhibition in [28], in data set [29] and in data set [19] were 98%, 100% and “Dose-dependent effect”, respectively. Also, the IC50 in data set [19] turned out to be 19100 nM. Moreover, the IC90 in [19] is 28800 nM.
